Values quoted from earlier work, collected in paper PMC9905294 (Biochemistry, 2023).

Target: Mtb Eis (Mycobacterium tuberculosis, UniProt P9WFK7)
Settings: previously published value; cited from earlier work

Chain of Mtb Eis (P9WFK7 whole entry): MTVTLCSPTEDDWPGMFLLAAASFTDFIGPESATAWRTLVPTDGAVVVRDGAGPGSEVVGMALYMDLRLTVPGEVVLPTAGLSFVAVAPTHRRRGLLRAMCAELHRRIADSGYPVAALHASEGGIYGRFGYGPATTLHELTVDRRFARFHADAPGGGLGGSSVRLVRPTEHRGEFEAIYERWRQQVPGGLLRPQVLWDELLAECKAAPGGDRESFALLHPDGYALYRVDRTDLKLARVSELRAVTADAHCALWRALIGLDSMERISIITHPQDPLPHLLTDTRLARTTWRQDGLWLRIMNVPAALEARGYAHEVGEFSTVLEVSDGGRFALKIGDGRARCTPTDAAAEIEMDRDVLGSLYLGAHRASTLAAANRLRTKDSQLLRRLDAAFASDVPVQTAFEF

Which IC50 does the source give for `[H]/N=C(\N/C(=N/[H])NCCCCCCNC(=N)NC(=N)Nc1ccc(Cl)cc1)Nc1ccc(Cl)cc1` [Chlorhexidine (CHX), Chlorhexidine] here?
The IC50 was 670 ± 190 nM.
